Data taken from patent US8318947B2, “Comestible compositions comprising high potency savory flavorants, and processes for producing them” (Senomyx, Inc., priority 2006, dated 2012).

Legend:
[1] = tested on: human panelists, savory taste; assay: Savory taste test with trained human panel (difference from reference); format: in vivo; settings: for Taste Data: cpd concentration as strong as 12 mM MSG: compound alone, without MSG; for Taste Data: cpd concentration at which 12 mM MSG + cpd is as strong as 12 mM MSG + 100 μM IMP: with 12 mM MSG, reference 12 mM MSG + 100 μM IMP
Experimental: General Panelist Selection: Basic screening of sensory taste testers: Potential panelists were tested for their abilities to rank and rate intensities of solutions representing the five basic tastes. Panelists ranked and rated intensity of five different concentrations of each of the five following compounds: sucrose (sweet), sodium chloride (salty), citric acid (sour), caffeine (bitter), and monosodium glutamate (savory). In order to be selected for participation in testing, panelists needed to correctly rank and rate samples for intensity, with a reasonable number of errors.
Preliminary Taste Tests: The panelists selected in the above procedure were deemed qualified for performing Preliminary Taste Testing procedures. The preliminary taste tests are used to evaluate new compounds for intensity of basic tastes and off-tastes. A small group of panelists (n=5) taste approximately 5 concentrations of the compound (range typically between 1-100 μM, in half-log cycles, e.g., 1, 3, 10, 30, and 100 μM) in water and in a solution of 12 mM MSG to evaluate enhancement. Panelists rate the five basic tastes (sweet, salty, sour, bitter, and savory) as well as off-tastes (such as chemical, metallic, sulfur) on a labeled magnitude scale. Samples are served in 10 mL portions at room temperature. The purpose of the test is to determine the highest concentration at which there is no objectionable off-taste, and determine if obvious savory taste or enhancement of savory taste exists at any of the concentrations tested.
Trained Panelist Selection: A trained expert panel was used to further evaluate compounds that had been tested with the preliminary taste test.
Panelists for the trained panel were selected from the larger group of qualifying taste panelists. Panelists were further trained on savory taste by ranking and rating experiments using MSG and IMP combinations. Panelists completed a series of ranking, rating, and difference from reference tests with savory solutions. In ranking and rating experiments, panelists evaluated easy MSG concentrations (0, 6, 18, 36 mM) and more difficult MSG concentrations (3, 6, 12, 18 mM MSG) in water.
Compound testing with Trained Panel: Compounds tested by the trained panel were evaluated in difference from reference experiments. […] Test samples were solutions with varying amounts of MSG, IMP, and the compound. Typically, each session compares the reference sample to numerous test samples. […] Compounds were tested against the reference in samples with and without 12 mM MSG. All samples were presented in 10 ml volumes at room temperature. Two sessions were completed for each compound tested to evaluate panel reproducibility.

[2] = molecular target: T1, hT1R1/hT1R3 umami receptor expressed in an HEK293 cell line (Homo sapiens, UniProt Q7RTX0+Q7RTX1); assay: Umami taste enhancement assay (EC50 ratio vs. MSG); format: cell-based
T1 construct: expressed in transfected cells; host or cells: HEK293 cell line derivative, clone 1-17, expression induced with mifepristone
T1 sequence (Q7RTX1 21-841): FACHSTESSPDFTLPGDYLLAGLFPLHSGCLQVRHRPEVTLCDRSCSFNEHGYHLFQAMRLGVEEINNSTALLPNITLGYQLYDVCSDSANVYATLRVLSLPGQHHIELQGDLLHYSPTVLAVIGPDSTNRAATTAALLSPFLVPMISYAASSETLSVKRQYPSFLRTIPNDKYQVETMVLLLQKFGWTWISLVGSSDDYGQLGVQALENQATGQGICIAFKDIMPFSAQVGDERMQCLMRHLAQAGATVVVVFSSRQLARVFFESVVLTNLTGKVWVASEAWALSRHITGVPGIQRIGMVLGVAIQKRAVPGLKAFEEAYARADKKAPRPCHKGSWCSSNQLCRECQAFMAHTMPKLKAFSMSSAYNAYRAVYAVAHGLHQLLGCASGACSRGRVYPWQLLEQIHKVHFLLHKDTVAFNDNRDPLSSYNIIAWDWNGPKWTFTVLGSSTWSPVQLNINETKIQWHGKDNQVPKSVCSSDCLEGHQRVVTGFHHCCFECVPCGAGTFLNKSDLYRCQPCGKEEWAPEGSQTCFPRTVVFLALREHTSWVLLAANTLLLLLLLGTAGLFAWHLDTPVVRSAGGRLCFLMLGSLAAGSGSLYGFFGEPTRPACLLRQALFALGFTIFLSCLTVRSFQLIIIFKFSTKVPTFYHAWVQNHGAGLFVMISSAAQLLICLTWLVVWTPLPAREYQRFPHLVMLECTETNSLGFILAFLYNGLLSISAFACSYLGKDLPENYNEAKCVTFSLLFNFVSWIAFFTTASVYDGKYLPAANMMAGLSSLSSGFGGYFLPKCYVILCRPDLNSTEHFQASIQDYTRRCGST
T1 sequence (Q7RTX0 21-852): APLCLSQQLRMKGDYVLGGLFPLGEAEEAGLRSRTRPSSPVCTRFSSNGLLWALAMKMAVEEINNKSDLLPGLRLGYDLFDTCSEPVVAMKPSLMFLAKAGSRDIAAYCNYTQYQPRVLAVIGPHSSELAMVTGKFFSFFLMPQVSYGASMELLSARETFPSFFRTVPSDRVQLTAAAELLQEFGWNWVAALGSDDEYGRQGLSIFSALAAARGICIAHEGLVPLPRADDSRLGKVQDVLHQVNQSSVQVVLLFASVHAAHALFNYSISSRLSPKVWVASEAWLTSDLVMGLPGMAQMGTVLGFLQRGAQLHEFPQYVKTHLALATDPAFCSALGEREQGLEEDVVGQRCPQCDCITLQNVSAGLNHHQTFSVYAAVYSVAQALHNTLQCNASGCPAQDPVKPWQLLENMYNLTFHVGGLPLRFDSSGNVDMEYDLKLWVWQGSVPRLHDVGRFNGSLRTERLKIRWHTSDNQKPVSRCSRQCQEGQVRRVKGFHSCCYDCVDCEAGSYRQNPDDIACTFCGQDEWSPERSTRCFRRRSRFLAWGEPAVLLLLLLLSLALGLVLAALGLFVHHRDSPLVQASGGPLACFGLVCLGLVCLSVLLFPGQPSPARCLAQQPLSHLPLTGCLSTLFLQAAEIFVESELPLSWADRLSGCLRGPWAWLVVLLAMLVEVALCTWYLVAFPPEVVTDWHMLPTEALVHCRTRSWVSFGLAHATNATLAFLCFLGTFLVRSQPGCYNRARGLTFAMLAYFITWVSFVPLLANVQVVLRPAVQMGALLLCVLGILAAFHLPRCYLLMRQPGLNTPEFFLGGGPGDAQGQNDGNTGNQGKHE
Excerpt: In umami taste enhancement activity assay experiments, which produce an “EC50 ratio” measurement of how effectively the amide compounds of the invention enhance the savory flavorant (typically MSG) already in a test solution. A series of measurements of the dose response is run in solutions comprising MSG alone, then a second dose response is run with MSG in combination with predetermined amounts of a candidate compound of Formula (I) at the same time.
In this assay, increasing concentrations of monosodium glutamate (ranging from 12 μM to 81 mM) were presented, in duplicates, in the presence or absence of a fixed concentration of the test compound. Typical compound concentrations tested were 30 μM, 10 μM, 3 μM, 1 μM, 0.3 μM, 0.1 μM and 0.03 μM. The relative efficacy of compounds of […] at enhancing the receptor was determined by calculating the magnitude of a shift in the EC50 for monosodium glutamate. Enhancement was defined as a ratio (EC50R) corresponding to the EC50 of monosodium glutamate, determined in the absence of the test compound, divided by the EC50 of monosodium glutamate, determined in the presence of the test compound.
Stated alternatively, “EC50 ratio” as compared to MSG is calculated based on the following definitions:
EC50 Ratio vs. MSG=EC50 (MSG)/EC50 (MSG+[Compound]) wherein “[compound]” refers to the concentration of the compound of Formula (I) used to elicit (or enhance or potentiate) the MSG dose response.
It should be noted that the EC50 ratio measured can depend somewhat on the concentration of the compound itself. Preferred savory enhancers would have a high EC50 Ratio vs. MSG at a low concentration of the compound used.

[3] = tested on: trained tasters, savory, salt, spice flavors; assay: Italian sausage rank-rating intensity taste test; format: in vivo, human; settings: scale 0-10, ten tasters
Excerpt: Three different dry Italian sausage seasoning mixes were formulated by dry blending the ingredients shown in the Tables below, then rehydrated during the formulation of corresponding sausages. One control sample of seasoning mix (Tables 36-1a, b) contained no MSG, and no compounds of the invention. A second sample of seasoning mix and sausage contained added MSG (Tables 36-2a, b). A third sample of Seasoning mix and corresponding sausage also contained added savory flavor concentrate compositions (prepared as per Example 34) containing (0.1% wt/wt) of compounds 1 and 24 ([…]).
Ten trained tasters were trained to identify the relative intensities of the following taste attributes: salty, savory/meaty, umami, brothiness, bitter, linger and off flavors. A rank-rating intensity test was used to evaluate the Italian Sausagesamples. A rank rating is a difference test to determine whether a sensory difference is perceived between various samples. Samples that were evaluated were the Italian Sausage no MSG, Italian sausage with MSG, Italian sausage with compounds 1 and 24 but no MSG. The panelists evaluated 3 randomized, blind coded samples of one ounce of Italian sausage served at 140° F., and ranked the intensity of savory, salt, spice flavors on a scale of 0-10: 0 being the least intense and 10 being the most intenese, and the scores were averaged for individual category.

Row | melting point [°C] | SMILES | Taste Data: cpd concentration at which 12 mM MSG + cpd is as strong as 12 mM MSG + 100 μM IMP [1] | other results
1 | – | COc1ccc2c(c1)CCC2NC(=O)c1ccc(OC)c(C)c1 (racemic) [Example 22, (R/S)-4-Methoxy-N-(5-methoxy-2,3-dihydro-1H-inden-1-yl)-3-methylbenzamide] | 12 mM MSG + 1 μM cpd as | Taste Data: cpd concentration as strong as 12 mM MSG [1]: 1 μM cpd as strong as
2 | – | CC1CCCC(NC(=O)c2ccc3c(c2)OCO3)C1C (stereo not drawn) [Example 4] | – | EC50 ratio (enhancement of the effectiveness of monosodium glutamate) ([2]; compound present at 1 μM): 8.4
3 | – | COC(=O)[C@@H](CC(C)C)NC(=O)c1ccc2c(c1)OCO2 [Example 5, (R)-methyl 2-(benzo[d][1,3]dioxole-6-carboxamido)-4-methylpentanoate] | 12 mM MSG + 10 μM cpd as | EC50 ratio (enhancement of the effectiveness of monosodium glutamate) ([2]; compound present at 0.1 μM): 4.9
4 | – | CCCC(CCC)NC(=O)c1ccc2c(c1)OC(C)O2 (stereo not drawn) [Example 9, N-(heptan-4-yl)-2-methylbenzo[d][1,3]dioxole-5-carboxamide] | – | EC50 ratio (enhancement of the effectiveness of monosodium glutamate) ([2]; compound present at 0.03 μM): 3.68
5 | – | COC(=O)[C@@H](CC(C)C)NC(=O)c1ccc(OC)c(Cl)c1 [Example 16, (R)-methyl 2-(3-chloro-4-methoxybenzamido)-4-methylpentanoate] | – | EC50 ratio (enhancement of the effectiveness of monosodium glutamate) ([2]; compound present at 0.01 μM): 13.18
6 | – | COC[C@@H](CC(C)C)NC(=O)c1ccc(C)c(C)c1 [Example 18, (R)—N-(1-methoxy-4-methylpentan-2-yl)-3,4-dimethylbenzamide] | 12 mM MSG + 3 μM cpd as | –
7 | – | COC(=O)[C@@H](CC(C)C)NC(=O)c1cc(C)c(C)o1 [Example 19, (R)-methyl 2-(2,3-dimethylfuran-5-carboxamido)-4-methylpentanoate] | 12 mM MSG + 10 μM cpd as | –
8 | – | COC(=O)[C@@H](CC(C)C)NC(=O)c1cc(OC)nc(OC)c1 [Example 20, (R)-methyl 2-(2,6-dimethoxyisonicotinamido)-4-methylpentanoate] | 12 mM MSG + 3 μM cpd as | –
9 | 118 to 119 | COc1ccccc1CNC(=O)C(=O)NCCc1ccccn1 [Example 23, N-(2-Methoxy-benzyl)-N′-(2-pyridin-2-yl-ethyl)-oxalamide] | – | EC50 ratio (enhancement of the effectiveness of monosodium glutamate) ([2]; compound present at 0.3 μM): 18.85
10 | 152 to 154 | Cc1ccc(CNC(=O)C(=O)NCCc2ccccn2)cc1 [Example 25, N-(4-methyl-benzyl)-N′-(2-pyridin-2-yl-ethyl)-oxalamide] | – | –
11 | 128 to 131 | COc1cc(C)ccc1CNC(=O)C(=O)NCCc1ccccn1 [Example 26, N-(2-methoxy-4-methylbenzyl)-N′-(2-(pyridin-2-yl)ethyl)oxalamide] | 12 mM MSG + 1 μM cpd as | Taste Data: cpd concentration as strong as 12 mM MSG [1]: 1 μM cpd as strong as
12 | 148 to 149 | Cc1ccc(CNC(=O)C(=O)NCCc2ccccn2)c(C)c1 [Example 27, N-(2,4-dimethylbenzyl)-N′-(2-(pyridin-2-yl)ethyl)oxalamide] | – | –
13 | 117 to 118 | CCOc1ccc(CNC(=O)C(=O)NCCc2ccccn2)c(OC)c1 [Example 28, N-(4-ethoxy-2-methoxybenzyl)-N′-(2-(pyridin-2-yl)ethyl)oxalamide] | – | –
14 | – | N[C@@H](CCC(=O)O)C(=O)[O-].[Na+] [MSG, monosodium glutamate] | – | Average score Salt [3]: 5.24; Average score Savory [3]: 6.13; Average score Spice [3]: 5.42
